# Measurements reported in US9980972B2, “Rho kinase inhibitors for use in treating familial amyotrophic lateral sclerosis” (GEORG-AUGUST-UNIVERSITÄT GÖTTINGEN STIFTUNG ÖFFENTLICHEN …, priority 2012, dated 2018).
# Legend:
# [1] = test system: SOD1 G93A mouse model of ALS; test: Survival (age at death) in SOD1 G93A mouse model of ALS; assay type: in vivo; settings: for survival proportions over time: non-differentiated by gender
# Text: High-copy B6SJL-Tg(SOD1*G93A)1Gur/J were obtained from Jackson Labs (Stock Number 002726; Bar Harbor, USA) that had originally been produced by Gurney et al. (Gurney, Pu et al. 1994). The colony was maintained by crossing C57BL/6 males harboring the transgene with wild-type SJL females. To verify presence of the transgene in the F1 progeny, tail biopsies were collected from 14-day-old pups and genotyped using PCR. At the age of 35-45 days mice were moved to the testing facility to acclimate to the new environment with a 12-h light/dark cycle before being assigned to a study.
# At 50 days (presymptomatic, d50) or 80 days of age (symptomatic, d80) mice were separated into Fasudil-30 (Fas30)- and Fasudil-100 (Fas100)-Treatment or Vehicle Control (Veh) groups. Prior to any treatment, groups were constituted so as to minimize between-group variability by using the following criteria. Groups were balanced with respect to gender and body weight within gender. In addition, groups were age-matched and littermate-matched. […] The study was observer-blinded.
# To reach sufficient CSF levels of Fasudil the inventors administered Fasudil (LC Labs, Woburn, USA; product number F-4660) at a low concentration of […] (Fas30) or at a high concentration of 50 mg (Fas100) in 100 ml drinking water. Control groups received the respective amount of isotonic drinking water termed as vehicle (Veh).
# Chronic oral treatment with a low dose of Fasudil (F30) or a high dose of Fasudil (F100) was started either presymptomatically at day 50 or symptomatically at day 80 and continued until death.
# Survival. Date and cause of death were recorded for each mouse. For humane reasons, animals are closely monitored and sacrificed as moribund prior to actual death using criteria for severe moribundity. To determine duration of survival reliably and humanely, the moribund state, defined as the inability of mice to right themselves 30 seconds after being placed on a side (a neurological score of 4) was used. The moribund mice were scored as “dead”, and were euthanized using carbon dioxide.
# The data were then analyzed using Kaplan-Meier survival fit analysis with the Log-Rank and Wilcoxon tests for statistical significance. Cox proportional hazards analysis was also performed to determine hazard ratios and test for statistical significance of their differences using the Effect Likelihood Chi Square test. Statistical analyses were performed using Statistica 9.1 (StatSoft, Hamburg, Germany). P-values less than 0.05 were taken to be statistically significant.
# The criteria to terminate the therapy study (later referred to as time of death) were fulfilled if the animals had reached the terminal neurological scoring or had lost a defined percentage of the maximal body weight. This time point then reflects the survival time of the animals whereas disease duration was measured from onset of disease until time of death.
# [2] = test system: neuromuscular junctions of SOD1 G93A mice; test: NMJ integrity of gastrocnemius muscle; assay type: in vivo, mouse; settings: Fasudil vs control treated animals
# [3] = test system: SOD1 G93A mouse model of ALS; test: Disease onset by neurological score in SOD1 G93A mice; assay type: in vivo; settings: treated from d50 or from d80, differentiated by gender
# Experimental: Neurological Score. Neurological scores were assessed every three days for each mouse from 50 days of age. The neurological score employed a scale of 0 to 4 that had been developed in ALS mouse trials before. Score criteria used to assign each score level were: • 4 Full extension of hind legs away from lateral midline when mouse is suspended by its tail, and mouse can hold this for 2 seconds, suspended 2-3 times. • 3 Collapse or partial collapse of leg extension towards lateral midline (weakness) or trembling of hind legs during tail suspension. • 2 Toes curl under at least twice during walking of 10 cm, or any part of foot is dragging along cage bottom/table. • 1 Rigid paralysis or minimal joint movement, foot not being used for forward motion*. * If score criterion 2 is reached, food pellets are left on bedding and water is additionally placed in a well on the bedding. • 0 Mouse cannot right itself within 30 seconds from either side.
# Onset of disease is defined as reaching neurological score 3 (collapse or partial collapse of leg extension towards lateral midline (weakness) or trembling of hind legs during tail suspension).
# [4] = test system: spinal cord microglia of SOD1 G93A mice; test: Microglia morphology subclassification in lumbar spinal cord; assay type: in vivo, mouse
# Text: For the evaluation of microglia morphology at least 10 randomly chosen cells per ventral horn were examined with a 63× objective. Cells were classified as “thin ramified”, “stouter ramified” and “rounded” according to a recent morphologic description by Graeber et al. (Graeber, M. B. (2010) Science 330(6005): 783-788). A ramified cell was defined as a cell that has at least 2 processes that are at least twice the size of cell body. Thin ramified cells were defined to have a small diameter of ramifications (<0.5 μm) and a small cell soma diameter (<5 μm). Stoutly ramified cells were defined with thicker ramifications (>0.5 μm) and a larger cell soma diameter (>5 μm).
# In order to further characterize the differential microglial behaviour in the treatment groups at d100, we performed a morphologic subclassification of microglial cells, as described above under the heading “Quantitative evaluation of spinal cord motoneurons and astroglia, sciatic nerve axons and NMJ”. […] The latter two morphologic cell types are considered to reflect a state of enhanced microglial activation in comparison to a surveillance type which is characterized by smaller cell bodies and thin ramified processes (exemplary microscopic images are shown in FIG. 21 C).
# [5] = test system: wildtype primary motoneurons in astrocyte/motoneuron co-culture; test: Kainic acid toxicity in astrocyte/motoneuron co-culture; assay type: cell-based; settings: KA exposure 24 h, Fasudil 4 or 20 μM, co-culture with astrocytes
# Text: In order to compare the Fasudil neuroprotective effect on motoneurons in vivo with an corresponding in vitro paradigm the inventors subjected wildtype primary motoneurons cultured in a astrocyte/motoneuron co-culture to kainic acid (KA) toxicity.
# [6] = test system: sciatic nerve axons of SOD1 G93A mice; test: Sciatic nerve axon numbers (axonal degeneration); assay type: in vivo, mouse; settings: day 100, female, Fas30 vs transgenic vehicle
# Experimental: Sciatic nerves were removed separately and postfixed for 24 h in 4% paraformaldehyde. […] After three washing steps the nerves were embedded in […] and Propylenoxide with a ratio of first 1:1 and then 2:1, each for 35 min. Before putting into a flat mould for drying and harding, Propylenoxide had to evaporate under a hood for 1 h. The sciatic nerves embedded in […] blocks were cut with a Microtom (Leica Ultracut) into semithin sections (380 nm) and were collected on gelatine coated glass slides. […] After washing in distilled water, slices were dried and mounted in […] cuts of sciatic nerve axons were evaluated from light microscopy images for axonal numbers and axoplasm size with the semi-automated counting and size measuring tool of the Image J software. In the d50 treatment group analyzed at […], a total of 17 female mice were counted from vehicle (5), Fas30 (7), and wildtype (5).
# [7] = test system: mono-cultures of primary motoneurons; test: Kainic acid toxicity in motoneuron mono-culture; assay type: cell-based
compound,measurement,setting,value
"O=S(=O)(c1cccc2cnccc12)N1CCCNCC1 [Fasudil, 1-(5-isoquinolinesulfonyl)homopiperazine]",average survival,"[1]; female, presymptomatic (d50) treatment, Fas30 (30 mg/kg/day in drinking water), control 130.4 days",141.8 days
same,survival,"[1]; male, presymptomatic (d50), Fas30",trend in prolongation of survival
same,survival proportions over time,"[1]; presymptomatic (d50), Fas30",profited significantly from the treatment
same,survival proportions over time,"[1]; symptomatic (d80), Fas30",did not show a statistically significant difference
same,survival proportions over time,"[1]; symptomatic (d80), Fas100 (100 mg/kg/day)",did not show a statistically significant difference
same,survival effect,"[1]; presymptomatic (d50), Fas100, compared with Fas30",less prominent
same,survival,"[1]; symptomatic treatment start, female or male group",not able to prolong survival
same,sciatic nerve axonal pathology and NMJ integrity of gastrocnemius muscle,[2],no significant differences
same,onset of disease (neurological score 3),[3],no statistically significant difference
same,rounded microglia,"[4]; d100, Fasudil 30, vehicle SOD1G93A 0.7±0.2%",0.5±0.1%
same,microglia with stout ramified processes,"[4]; d100, Fasudil 30, vehicle SOD1G93A 46.7±6.3%",70.8±5.3%
same,microglia with thin ramifications,"[4]; d100, Fasudil 30, vehicle SOD1G93A 52.6±6.3%",28.7±5.3%
same,microglial morphology,"[4]; disease end-stage, all treatment groups",no gross alterations
same,survival of KA exposed motoneurons,[5],protected motoneurons from KA induced cell death
same,axonal number by axoplasmal diameter size range,[6],no significant differences
same,total number of preserved axons in the sciatic nerve,[6],comparable axon numbers
same,survival of KA exposed motoneurons,[7],effectively protecting
